According to patent US20150284362A1, “CARBAZOLE-CONTAINING AMIDES, CARBAMATES, AND UREAS AS CRYPTOCHROME MODULATORS” (ReSet Therapeutics, Inc., priority 2014, published 2015):

What was measured:
[1] = Pharmacokinetic analysis in SD rats (plasma); type: in vivo; conditions: male, po, rat, 50 mg/kg P.O., Table 4, read-out: Total Plasma AUC, AUC (0-last)
Procedure: Male SD rats (weighing 250-300 g, Charles River Laboratories) were used for the experiment with n=4 rats for each experimental group. […] Blood was collected at the following time points after administration: 15, 30, 60, 90 minutes, 3, 6, 12 and 24 hours. A pre-dose sample was also collected. Animals were cannulated by technical staff at Charles River, prior to delivery at Reset. Whole blood (0.3 ml) was collected from a cannula in the right common jugular vein at each time-point. The whole blood was transferred to an EDTA tube, and then centrifuged at 5400 rpm for 5 minutes at 4° C. The resultant plasma was frozen using dry ice and then stored at −80° C. until ready for assay. 0.9% Sodium Chloride (0.3 ml) was administered for fluid replenishment after each blood draw. 0.1 ml of Sodium Heparin (500 IU/ml) was used as a lock solution after the 12 hr time-point. Samples were assayed as described above.

[2] = Pharmacokinetic analysis in ICR mice (plasma and liver); type: in vivo; conditions: male, plasma, po, mouse, 50 mg/kg P.O., Table 4, read-out: Total Plasma AUC, AUC (0-last)
Procedure: Male ICR mice (weighing 30-40 g, Charles River Laboratories) were used for the experiment with n=3 mice for each experimental group (27 mice total for the study). […] Blood and liver tissue were collected at the following time points after administration: 15, 30, 60, 90 minutes, 3, 6, 12 and 24 hours. A control group of animals (TO) was also sampled. Animals were euthanized with CO2 and the blood collected from the heart using cardiac puncture, transferred to an EDTA tube, and then centrifuged at 5400 rpm for 5 minutes at 4° C. The resultant plasma was frozen using dry ice and then stored at −80° C. until ready for assay. Liver tissue was removed from each animal, 0.5 g was collected in an eppendorff, frozen and submitted for pharmacokinetic measurement.

[3] = tested on: core clock and gluconeogenic gene mRNAs in liver; assay: 24 hour gene expression study, liver mRNA by RT-qPCR, C57Bl/6J DIO mice; type: in vivo, mouse; conditions: 50 mg/kg PO BID, 5 doses
Excerpt: Male C57Bl/6J DIO mice were purchased at 17 weeks of age (The Jackson Laboratory, Sacramento, Calif.) and acclimated for a 2 week period before being used for the experiment. Overall group size was 15 per treatment, divided into 5 time-points to give a final group size of 3 mice.
In total, each mouse received 5 doses of compound over the course of the experiment. Mice were weighed and randomly assigned to each treatment based on weight the evening before the commencement of the study. Beginning on Day 3 at 3:00 PM, a group of animals from the vehicle and Compound 72-treated groups were euthanized using CO2 asphyxiation, 50 mg of liver, epididymal fat, and skeletal muscle, respectively, were excised and placed in tube containing 500 μl of RNALater. This procedure took place for the remainder of the time-point groups at their given harvest times. Plasma samples were also taken for each animal and frozen, to be used for later measurement of compound levels.
E.Z.N.A.® HP Total RNA Isolation Kits (R6812-01 and the protocol described in the Manual, Revised 2010) were utilized to prepare and isolate RNA from the liver samples. To prepare the RNA samples, 10-30 mg of sample was removed from RNA-Later and placed in a 1.5 ml microfuge tube. GTC lysis buffer (700 μl) was added to the tissue, which was homogenized with a rotor-stator homogenizer (e.g. Tissue-Tearor, Model #985370 BioSpec Products with 4.5 mm probe, Cat. #985370-04), and then centrifuged at full speed (≧13,000×g) for 5 minutes. The cleared supernatant was transferred by pipetting to a DNA Clearance Column Pre-inserted in a 2 mL Collection Tube. The assembled column was centrifuged at 13,000×g for 1 minute, and the flow-through was saved. An equal volume (700 μl) of 70% ethanol was added to the lysate and mixed. The sample was then applied to a HiBind RNA spin column placed into a 2 ml collection tube, which was centrifuged at 10,000×g for 60 seconds at room temperature. RNA Wash Buffer I (250 μl) was added by pipetting directly onto a new HiBind RNA column inserted in a 2 ml collection tube. The assembled column was centrifuged at 10,000×g for 60 seconds. The RNA column was placed into a new 2 ml collection tube. DNase I stock solution is pipetted (75 μl) directly onto the surface of the HiBind RNA resin in each column (Using DNAse Digestion with RNase Free DNase Set (E1091): for each HiBind RNA column, the DNase I stock solution was prepared as followed: E.Z.N.A.® DNase I Digestion Buffer 73.5 μl, RNase Free DNase I (20 Kunitz/μl) 1.5 μl=Total Volume 75 μl.). The column with bound RNA was incubated at room temperature (25-30° C.) for 15 minutes. RNA Wash Buffer I (500 μl) was added to the column and placed on a bench top for 2 minutes. After centrifuging at 10,000×g for 60 seconds, discarding the flow-through, 500 μl of RNA Wash Buffer II was added and centrifuged at 10,000×g for 60 seconds. Another 500 μl of RNA Wash Buffer II was added and the column assembly was centrifuged at 10,000×g for 60 seconds. The column was centrifuged for 2 minutes at maximum speed to completely dry the HiBind matrix. The column was placed in a clean 1.5 ml microcentrifuge tube and 40-70 μl of molecular biology grade water is added. […]
RediPlate 96 RiboGreen RNA Quantification Kit (Invitrogen) RediPlate standard curve was prepared by transferring 20 μl reconstituted RNA standard to a RediPlate well reconstituted in 180 μl RediPlate TE buffer. […]

Compound: O=C1NCCN1CC(O)Cn1c2ccc(F)cc2c2cc(F)ccc21 (stereo not shown) [Compound 72, 1-(3-(3,6-difluoro-9H-carbazol-9-yl)-2-hydroxypropyl)imidazolidin-2-one]
- AUC(0-t) [1]: 57900 ng·h/mL
- AUC(0-t) [2]: 4160 ng·h/mL
- Bmal1 mRNA in liver ([3]; at ZT8 and 32 hours after ZT0 vs vehicle): substantially increased
- Per2 mRNA in liver ([3]; over 24 hours vs vehicle): suppressed
- Cry1 mRNA in liver ([3]; vs vehicle): suppressed during its peak of expression during the dark period
- Cry2 mRNA in liver (daytime peak) ([3]; vs vehicle): strongly attenuated
- circadian pattern of mRNAs for gluconeogenic genes Pck1 and G6Pc in liver ([3]; vs vehicle): substantially altered
